In patent US9062124B2, “GIP-based mixed agonists for treatment of metabolic disorders and obesity” (priority 2008, dated 2015):
pEC50: −log10 of the molar value. Read-outs that look alike come from different tables or passages of the source. Where a SMILES comes first, the peptide text is derived from it. Bridges are numbered along the chain shown (N, C = ends). Where no end group is shown, it is not given here. [ ]: non-standard residue; d: D form. The star is where a group is joined. PEG 40 kDa = PEG (40 kDa) covalently attached to Cys; Stearoyl = CCCCCCCCCCCCCCCCCC(=O)*; PhLac = O=C(O)[C@@H](O)Cc1ccccc1; Aib = CC(C)(N)C(=O)O

Legend:
Assay type in all cases: cell-based
GLP-1 receptor = molecular target: T1, GLP-1 receptor (Homo sapiens, UniProt P43220); test: cAMP synthesis functional assay (firefly luciferase reporter in HEK293 cells), GLP-1 receptor
T1 construct: expressed in transfected cells; host or cells: HEK293

GIP receptor = molecular target: T2, GIP receptor (Homo sapiens, UniProt P48546); test: cAMP synthesis functional assay (firefly luciferase reporter in HEK293 cells), GIP receptor
T2 construct: expressed in transfected cells; host or cells: HEK293
T2 sequence (P48546 22-466): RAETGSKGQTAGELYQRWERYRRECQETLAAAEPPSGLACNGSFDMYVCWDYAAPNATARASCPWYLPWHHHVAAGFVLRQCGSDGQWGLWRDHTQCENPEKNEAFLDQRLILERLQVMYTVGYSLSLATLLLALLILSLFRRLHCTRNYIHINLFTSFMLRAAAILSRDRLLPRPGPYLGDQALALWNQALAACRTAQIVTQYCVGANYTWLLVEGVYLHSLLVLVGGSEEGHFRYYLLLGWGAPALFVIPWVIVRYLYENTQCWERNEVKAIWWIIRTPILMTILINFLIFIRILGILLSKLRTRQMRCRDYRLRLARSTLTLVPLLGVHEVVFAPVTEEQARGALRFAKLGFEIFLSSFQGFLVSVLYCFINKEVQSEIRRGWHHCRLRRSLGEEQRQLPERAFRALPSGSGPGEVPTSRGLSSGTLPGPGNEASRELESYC

glucagon receptor = molecular target: T3, glucagon receptor (Homo sapiens, UniProt P47871); test: cAMP synthesis functional assay (firefly luciferase reporter in HEK293 cells), glucagon receptor; settings: for EC50: Glucagon Receptor EC50, nM
T3 construct: expressed in transfected cells; host or cells: HEK293

[1] = Table 1, relative to the native hormone of the indicated receptor
[2] = relative to the standard (Std.) EC50 of the same run

T1 sequence (P43220 24-463, species assumed): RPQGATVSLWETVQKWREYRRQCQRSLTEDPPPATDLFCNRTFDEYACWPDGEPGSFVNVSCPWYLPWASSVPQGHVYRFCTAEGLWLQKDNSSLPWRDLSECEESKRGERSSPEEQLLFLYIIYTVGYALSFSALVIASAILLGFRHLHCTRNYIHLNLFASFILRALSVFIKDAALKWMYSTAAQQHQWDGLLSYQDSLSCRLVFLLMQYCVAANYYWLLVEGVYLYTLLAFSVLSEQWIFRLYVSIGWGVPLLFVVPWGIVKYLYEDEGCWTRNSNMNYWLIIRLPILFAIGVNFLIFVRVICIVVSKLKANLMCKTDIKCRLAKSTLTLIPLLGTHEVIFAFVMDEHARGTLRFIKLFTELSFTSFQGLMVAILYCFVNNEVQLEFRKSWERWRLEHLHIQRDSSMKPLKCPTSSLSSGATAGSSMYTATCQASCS
T3 sequence (P47871 26-477): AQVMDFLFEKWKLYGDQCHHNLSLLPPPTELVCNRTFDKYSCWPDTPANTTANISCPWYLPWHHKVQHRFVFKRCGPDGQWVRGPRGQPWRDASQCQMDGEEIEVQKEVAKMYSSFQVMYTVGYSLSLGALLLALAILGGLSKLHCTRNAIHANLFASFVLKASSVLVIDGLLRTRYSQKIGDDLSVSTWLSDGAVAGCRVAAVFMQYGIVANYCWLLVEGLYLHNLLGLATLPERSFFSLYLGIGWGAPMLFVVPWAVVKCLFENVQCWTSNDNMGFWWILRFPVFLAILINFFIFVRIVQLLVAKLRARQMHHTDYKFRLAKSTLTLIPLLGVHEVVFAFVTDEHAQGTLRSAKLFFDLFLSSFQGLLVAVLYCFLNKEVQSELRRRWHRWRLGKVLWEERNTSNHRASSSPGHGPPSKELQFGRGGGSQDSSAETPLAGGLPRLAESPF

mt-202: glucagon analog peptide, C-terminal amide (Y[Aib]QGTFVSDYSIYLDEQAAKEFVNWLLAGGPSSGAPPPSC(PEG 40 kDa)-NH2; lactam 16-20)
GLP-1 Receptor relative activity (GLP-1 receptor; [1]): 0.18% | pEC50 (GLP-1 receptor; read-out: GLP-1 Receptor EC50, Table 1): 7.80 | GIP Receptor relative activity (GIP receptor; [1]): 1.32% | pEC50 (GIP receptor; read-out: GIP Receptor EC50, Table 1): 8.66 | Glucagon Receptor relative activity (glucagon receptor; [1]): 2.84% | pEC50 (glucagon receptor; read-out: Glucagon Receptor EC50, Table 1): 8.63

CCCCCCCCCCCCCCCCCC(=O)NCCCC[C@H](NC(=O)[C@H](CC(=O)O)NC(=O)[C@H](CO)NC(=O)[C@@H](NC(=O)[C@H](Cc1ccccc1)NC(=O)[C@@H](NC(=O)CNC(=O)[C@H](CCC(=O)O)NC(=O)C(C)(C)NC(=O)[C@@H](N)Cc1ccc(O)cc1)[C@@H](C)O)[C@@H](C)O)C(=O)N[C@@H](CO)C(=O)N[C@H](C(=O)N[C@@H](Cc1ccc(O)cc1)C(=O)N[C@@H](CC(C)C)C(=O)N[C@@H](CC(=O)O)C(=O)N[C@@H](CCCCN)C(=O)N[C@@H](CCC(N)=O)C(=O)N[C@@H](C)C(=O)N[C@@H](C)C(=O)NC(C)(C)C(=O)N[C@@H](CCC(=O)O)C(=O)N[C@@H](Cc1ccccc1)C(=O)N[C@H](C(=O)N[C@@H](CC(N)=O)C(=O)N[C@@H](Cc1c[nH]c2ccccc12)C(=O)N[C@@H](CC(C)C)C(=O)N[C@@H](CC(C)C)C(=O)N[C@@H](C)C(=O)NCC(N)=O)C(C)C)[C@@H](C)CC [mt-284] (H-Y[Aib]EGTFTSDK(Stearoyl)SIYLDKQAA[Aib]EFVNWLLAG-NH2; N-terminus assumed)
pEC50 (GLP-1 receptor; GLP-1 Receptor EC50, cAMP luciferase reporter assay as in Example 16): 10.81 | GLP-1 Receptor relative activity (GLP-1 receptor; [2]): 38.06% | GIP Receptor relative activity (GIP receptor; [2]): 54.84% | pEC50 (glucagon receptor; Glucagon Receptor EC50, cAMP luciferase reporter assay as in Example 16): 8.38 | Glucagon Receptor relative activity (glucagon receptor; [2]): 0.69%

mt-208: glucagon analog peptide, C-terminal amide (Y[Aib]EGTFTSDYSIYLDEQAAKEFVNWLLAGKGKKNWLKHNITQC(PEG 40 kDa)-NH2; lactam 16-20)
GLP-1 Receptor relative activity (GLP-1 receptor; [1]): 11.83% | GIP Receptor relative activity (GIP receptor; [1]): 4.79%

YAPGTFISDYSIAMDKIHQQDFVNWLLAQKGKKNWLKHNITQ-NH2 [mt-101]
GIP Receptor relative activity (GIP receptor; [1]): 0.06%

CC[C@H](C)[C@H](NC(=O)[C@H](CO)NC(=O)[C@H](Cc1ccc(O)cc1)NC(=O)[C@H](CC(=O)O)NC(=O)[C@H](CO)NC(=O)[C@@H](NC(=O)[C@H](Cc1ccccc1)NC(=O)[C@@H](NC(=O)CNC(=O)[C@H](CCC(=O)O)NC(=O)[C@H](C)NC(=O)[C@@H](N)Cc1ccc(O)cc1)[C@@H](C)O)[C@@H](C)O)C(=O)N[C@@H](Cc1ccc(O)cc1)C(=O)N[C@@H](CCSC)C(=O)N[C@@H](CC(=O)O)C(=O)N[C@H]1CCC(=O)NCCCC[C@@H](C(=O)N[C@@H](CCC(=O)O)C(=O)N[C@@H](Cc2ccccc2)C(=O)N[C@H](C(=O)N[C@@H](CC(N)=O)C(=O)N[C@@H](Cc2c[nH]c3ccccc23)C(=O)N[C@@H](CC(C)C)C(=O)N[C@@H](CC(C)C)C(=O)N[C@@H](C)C(=O)NCC(=O)NCC(=O)N2CCC[C@H]2C(=O)N[C@@H](CO)C(=O)N[C@@H](CO)C(=O)NCC(=O)N[C@@H](C)C(=O)N2CCC[C@H]2C(=O)N2CCC[C@H]2C(=O)N2CCC[C@H]2C(=O)N[C@@H](CO)C(N)=O)C(C)C)NC(=O)[C@H](C)NC(=O)[C@H](C)NC(=O)[C@H](CCC(N)=O)NC1=O [mt-142] (H-YAEGTFTSDYSIYMDEQAAKEFVNWLLAGGPSSGAPPPS-NH2; lactam 16-20; N-terminus assumed)
GLP-1 Receptor relative activity (GLP-1 receptor; [1]): 163.41% | GIP Receptor relative activity (GIP receptor; [1]): 36.36%

CC[C@H](C)[C@H](NC(=O)[C@H](Cc1ccccc1)NC(=O)[C@H](CCC(=O)O)NC(=O)[C@@H]1CCCCNC(=O)CC[C@H](NC(=O)[C@H](CC(=O)O)NC(=O)[C@H](CC(C)C)NC(=O)[C@H](Cc2ccc(O)cc2)NC(=O)[C@@H](NC(=O)[C@H](CO)NC(=O)[C@H](Cc2ccc(O)cc2)NC(=O)[C@H](CC(=O)O)NC(=O)[C@H](CO)NC(=O)[C@@H](NC(=O)[C@H](Cc2ccccc2)NC(=O)[C@@H](NC(=O)CNC(=O)[C@H](CCC(N)=O)NC(=O)[C@H](CO)NC(=O)[C@@H](N)Cc2c[nH]cn2)[C@@H](C)O)[C@@H](C)O)[C@@H](C)CC)C(=O)N[C@@H]([C@@H](C)CC)C(=O)N[C@@H](Cc2c[nH]cn2)C(=O)N[C@@H](CCC(N)=O)C(=O)N1)C(=O)N[C@@H](CS)C(=O)N[C@@H](Cc1c[nH]c2ccccc12)C(=O)N[C@@H](CC(C)C)C(=O)N[C@@H](CC(C)C)C(=O)N[C@@H](C)C(=O)N[C@@H](CCC(N)=O)C(N)=O [mt-84] (H-HSQGTFTSDYSIYLDEIHQKEFICWLLAQ-NH2; lactam 16-20; N-terminus assumed)
EC50 (GLP-1 receptor; GLP-1 Receptor EC50, nM, Table 1): 0.16 nM | GLP-1 Receptor relative activity (GLP-1 receptor; [1]): 50.00% | EC50 (glucagon receptor; Table 1): 0.45 nM | Glucagon Receptor relative activity (glucagon receptor; [1]): 13.33%

CC[C@H](C)[C@H](NC(=O)[C@H](CO)NC(=O)[C@H](Cc1ccc(O)cc1)NC(=O)[C@H](CC(=O)O)NC(=O)[C@H](CO)NC(=O)[C@@H](NC(=O)[C@@H](O)Cc1ccccc1)[C@@H](C)CC)C(=O)N[C@@H](C)C(=O)N[C@@H](CCSC)C(=O)N[C@@H](CC(=O)O)C(=O)N[C@H]1CCC(=O)NCCCC[C@@H](C(=O)N[C@@H](CC(=O)O)C(=O)N[C@@H](Cc2ccccc2)C(=O)N[C@H](C(=O)N[C@@H](CC(N)=O)C(=O)N[C@@H](Cc2c[nH]c3ccccc23)C(=O)N[C@@H](CC(C)C)C(=O)N[C@@H](CC(C)C)C(=O)N[C@@H](C)C(=O)N[C@@H](CCC(N)=O)C(N)=O)C(C)C)NC(=O)[C@H](CCC(N)=O)NC(=O)[C@H](Cc2c[nH]cn2)NC(=O)[C@H]([C@@H](C)CC)NC1=O [mt-113] (H-[PhLac]ISDYSIAMDEIHQKDFVNWLLAQ-NH2; lactam 11-15)
GLP-1 Receptor relative activity (GLP-1 receptor; [1]): 0.04% | Glucagon Receptor relative activity (glucagon receptor; [1]): 0.07%

CC[C@H](C)[C@H](NC(=O)[C@H](CO)NC(=O)[C@H](Cc1ccc(O)cc1)NC(=O)[C@H](CC(=O)O)NC(=O)[C@H](CO)NC(=O)[C@@H](NC(=O)[C@H](Cc1ccccc1)NC(=O)[C@@H](NC(=O)CN)[C@@H](C)O)[C@@H](C)O)C(=O)N[C@@H](Cc1ccc(O)cc1)C(=O)N[C@@H](CC(C)C)C(=O)N[C@@H](CC(=O)O)C(=O)N[C@H]1CCC(=O)NCCCC[C@@H](C(=O)N[C@@H](CCC(=O)O)C(=O)N[C@@H](Cc2ccccc2)C(=O)N[C@H](C(=O)N[C@@H](CC(N)=O)C(=O)N[C@@H](Cc2c[nH]c3ccccc23)C(=O)N[C@@H](CC(C)C)C(=O)N[C@@H](CC(C)C)C(=O)N[C@@H](C)C(=O)NCC(N)=O)C(C)C)NC(=O)[C@H](C)NC(=O)[C@H](C)NC(=O)[C@H](CCC(N)=O)NC1=O [mt-197] (H-GTFTSDYSIYLDEQAAKEFVNWLLAG-NH2; lactam 13-17; N-terminus assumed)
GLP-1 Receptor relative activity (GLP-1 receptor; [1]): 0.07% | Glucagon Receptor relative activity (glucagon receptor; [1]): 0.13%

CC[C@H](C)[C@@H]1NC(=O)[C@@H](NC(=O)[C@H](CC(=O)O)NC(=O)[C@H](CC(C)C)NC(=O)[C@H](Cc2ccc(O)cc2)NC(=O)[C@H](CCCCN)NC(=O)[C@H](CO)NC(=O)[C@H](Cc2ccc(O)cc2)NC(=O)[C@H](CC(=O)O)NC(=O)[C@H](CO)NC(=O)[C@@H](NC(=O)[C@@H](O)Cc2ccccc2)[C@@H](C)O)CCC(=O)NCCCC[C@@H](C(=O)N[C@@H](CC(=O)O)C(=O)N[C@@H](Cc2ccccc2)C(=O)N[C@H](C(=O)N[C@@H](CC(N)=O)C(=O)N[C@@H](Cc2c[nH]c3ccccc23)C(=O)N[C@@H](CC(C)C)C(=O)N[C@@H](CC(C)C)C(=O)N[C@@H](C)C(=O)N[C@@H](CCC(N)=O)C(N)=O)C(C)C)NC(=O)[C@H](CCC(N)=O)NC(=O)[C@H](Cc2c[nH]cn2)NC1=O [mt-114] (H-[PhLac]TSDYSKYLDEIHQKDFVNWLLAQ-NH2; lactam 11-15)
GLP-1 Receptor relative activity (GLP-1 receptor; [1]): 0.05% | Glucagon Receptor relative activity (glucagon receptor; [1]): 0.28%

CC[C@H](C)[C@H](NC(=O)[C@H](Cc1ccccc1)NC(=O)[C@H](CCC(=O)O)NC(=O)[C@H](CCCCN)NC(=O)[C@H](CCC(N)=O)NC(=O)[C@H](Cc1c[nH]cn1)NC(=O)[C@@H](NC(=O)[C@@H]1CCC(=O)NCCCC[C@H](NC(=O)[C@H](CO)NC(=O)[C@H](Cc2ccc(O)cc2)NC(=O)[C@H](CC(=O)O)NC(=O)[C@H](CO)NC(=O)[C@@H](NC(=O)[C@H](Cc2ccccc2)NC(=O)[C@@H](NC(=O)CNC(=O)[C@H](CCC(N)=O)NC(=O)[C@H](CO)NC(=O)[C@@H](N)Cc2c[nH]cn2)[C@@H](C)O)[C@@H](C)O)C(=O)N[C@@H](Cc2ccc(O)cc2)C(=O)N[C@@H](CC(C)C)C(=O)N[C@@H](CC(=O)O)C(=O)N1)[C@@H](C)CC)C(=O)N[C@@H](C)C(=O)N[C@@H](Cc1c[nH]c2ccccc12)C(=O)N[C@@H](CC(C)C)C(=O)N[C@@H](CCSC)C(=O)N[C@@H](CC(N)=O)C(=O)N[C@H](C(N)=O)[C@@H](C)O [mt-63]
GLP-1 Receptor relative activity (GLP-1 receptor; [1]): 12.90% | EC50 (glucagon receptor; Table 1): 3.15 nM | Glucagon Receptor relative activity (glucagon receptor; [1]): 6.03%

YAPGTFISDYSIAMDKIHQQDFVCWLLAQKGKKNWLKHNITQ-NH2 [mt-104]
GIP Receptor relative activity (GIP receptor; [1]): 0.22%
